Where two headings read alike, the source gives them in different places.
Assays:
[1] = Ethylene/propylene copolymerization in continuous flow stirred tank reactor (catalyst productivity); conditions: CFSTR, residence time 11 minutes
Description: A series of copolymers based on ethylene and propylene monomers were prepared in a continuous flow stirred tank reactor using the vanadium
The polymerization results as set forth in Table 1 are expressed as polymer made in the reactor in gms per hour.

[2] = Preparation of polyethylene (batch ethylene polymerization); conditions: 1 mmole catalyst, 5 mmoles ethyl aluminum sesquichloride, room temperature, 0.5 hrs
Description: In a 1.5 liter reaction vessel was introduced 800 ml of hexane. This was maintained at room temperature and ethylene was slowly bubbled in at the rate of 34 gms/hour. When the solution was saturated, 5 mmoles of Ethyl aluminum sesquichloride was added as a solution in hexane followed by a solution of 1 mmole of the transition metal catalyst compound dissolved in toluene. […] The polymerization was maintained for 0.5 hrs with constant monomer addition. At the end of the polymerization period, the polymerization was terminated by the addition of 5 ml of isopropanol and the polymer was recovered by filtration and dried to constant weight.

[3] = Catalyst lifetime in isothermal tubular reactor polymerization, first order decay; conditions: isothermal 40° C.
[4] = Ethylene/propylene copolymerization in tubular reactor (polymerization rate); conditions: for Effectiveness in polymerizing ethylene/propylene compared to VCl4 (in words): tubular reactor process; for Polymerization Rate (polymer made in the reactor): tubular reactor, 15° C. at the initial zone, adiabatic, premix 8 sec at 10° C. (Example 12) or -10° C. (all others)
Source text: The polymerization results are shown in Table II and are expressed/as polymer made in the reactor in gms per hour.

[5] = Conversion of vanadium component into active catalyst (tubular reactor, premixing); conditions: premixing residence time 8 seconds, temperature varied to maximize conversion
Description: The vanadium component attains a maximum conversion to the active catalyst under certain premixing conditions determined by the concentrations of the vanadium and aluminum components and the residence time in the premixing zone and the reaction temperature. The experiment was conducted with identical concentrations of vanadium compound and the same molar ratio of aluminum to vanadium. The premixing experiment was run for the residence time of 8 seconds and the reaction temperature was varied to maximize the conversion of the vanadium component into the active catalyst.

[6] = Copolymerization of norbornene type monomers with ethylene/propylene in CFSTR; conditions: 30° C.
Description: Polymerization experiments were conducted in a continuous flow stirred tank reactor process wherein norbornene type monomers such as norbornene and 5-ethylidene-2-norbornene (ENB) are copolymerized employing the invention catalysts. The polymerization was conducted under the following conditions:
Ethyl aluminum sesquichloride:
Tetraethoxysilane at .208 gms/hr

[7] = tubular reactor systems, pre-mixing and aging, in some cases; cited from earlier work
[8] = tubular reactor
[9] = Condition A: no norbornene monomer
[10] = Condition B: Norbornene at 10.3 gms/hr
[11] = Condition C: Norbornene at 20.6 gms/hr
[12] = Condition D: ENB at 12.4 gms/hr + Tetraethoxysilane at .208 gms/hr

| Molecule | Catalyst Productivity at Specified Temperature (polymer made in the reactor) ([1]; 30° C.) | Catalyst Productivity at Specified Temperature (polymer made in the reactor) ([1]; 45° C.) | Catalyst Productivity at Specified Temperature (polymer made in the reactor) ([1]; 60° C.) | Wt of PE [2] | Half-Life at 40° C. [3] | Effectiveness in polymerizing ethylene/propylene compared to VCl4 (in words) [4] | Polymerization Rate (polymer made in the reactor) [4] | Catalyst Conv % (percentage of vanadium converted to the active catalyst at maximum) [5] | Polymerization rate [6, 9] | Polymerization rate [6, 10] | Polymerization rate [6, 11] | Polymerization rate [6, 12] | Deactivation of catalyst formed, based on the moles of the initial vanadium compound added [7] | Half-Life at 40° C. [8] |
| --- | --- | --- | --- | --- | --- | --- | --- | --- | --- | --- | --- | --- | --- | --- |
| Hexanoate Salicaldehyde mono chloro vanadium (+3) [Catalyst Code 4] | 90 gms per hour | 73 gms per hour | 56 gms per hour | 15.0 GMS | 10.0 s | – | – | – | – | – | – | – | – | – |
| CC(=O)C=C(C)[O-].CCCCCC(=O)[O-].[Cl-].[V+3] [Catalyst Code 3, Hexanoate (2,4-Pentanedionate) mono chloro vanadium (+3)] | 87 gms per hour | 64 gms per hour | 51 gms per hour | 15.0 GMS | 13.8 s | significantly more effective than VCL4 in polymerizing ethylene/propylene monomers | 891 gms per hour | 75% | 165 gms/hr | 178 gms/hr | 164 gms/hr | 165 gms/hr | – | – |
| Tetra chloro vanadium (+4) [Catalyst Code 0, reference compound] | – | – | – | – | 2.5 s | – | – | – | – | – | – | – | up to 55 mole percent | – |
| Bis hexanoate mono chloro titanium [Catalyst Code 5] | – | – | – | 13.5 GMS | – | – | – | – | – | – | – | – | – | – |
| Bis hexanoate mono chloro vanadium (+3) [Catalyst Code 1] | 95 gms per hour | 68 gms per hour | 58 gms per hour | 13.9 GMS | 19.8 s | significantly more effective than VCL4 in polymerizing ethylene/propylene monomers | 832 gms per hour | 67% | 171 gms/hr | 171 gms/hr | 168 gms/hr | 160 gms/hr | – | – |
| CC(=O)C=C(C)[O][V]([Cl])[O]C(C)=CC(C)=O [Catalyst Code 2, Bis (2,4-pentanedionate) mono chloro vanadium (+3)] | 92 gms per hour | 64 gms per hour | 51 gms per hour | 14.3 GMS | – | significantly more effective than VCL4 in polymerizing ethylene/propylene monomers | 878 gms per hour | 72% | 169 gms/hr | 164 gms/hr | 159 gms/hr | 152 gms/hr | – | 11.6 s |

From patent publication US5021595A, “Transition metal catalyst composition for olefin polymerization” (Exxon Chemical Patents Inc., priority 1990, dated 1991)
